Drawing on ChEMBL document CHEMBL3232861, “Metabolites of antroquinonol found in rat urine following oral administration” (J Nat Prod, 2014), this text covers Drug excretion for five molecules.

Type in all cases: ADME, organism-based
Common to all, as to design: dose 200 mg/kg, route oral
Holding throughout (settings): in vivo

The nature of data set [1]: Drug excretion in Wistar rat urine treated with antroquinonol at 200 mg/kg, po administered via gavage measured after 24 hrs by HPLC-SPE-TT-NMR analysis.
The nature of data set [2]: Drug excretion in Wistar rat urine assessed as (E)-6-((1R,2R,6R)-2-Hydroxy-3,4-dimethoxy-6-methyl-5-oxocyclo-hex-3-enyl)-4-methylhex-3-enoic acid level at 200 mg/kg, po administered via gavage measured after 24 hrs by HPLC-SPE-TT-NMR analysis.
The nature of data set [3]: Drug excretion in Wistar rat urine assessed as (E)-6-((1R,2R,6R)-2-Hydroxy-3,4-dimethoxy-6-methyl-5-oxocyclo-hex-3-enyl)-4-methylhex-4-enoic acid level at 200 mg/kg, po administered via gavage measured after 24 hrs by HPLC-SPE-TT-NMR analysis.
Data set [4] is described as follows: Drug excretion in Wistar rat urine assessed as (E)-6-((1R,2R ,6R)-2,5-Dihy droxy-4-methoxy-6-methyl-3-oxocyclo-hex-4-enyl)-4-methylhex-4-enoic acid level at 200 mg/kg, po administered via gavage measured after 24 hrs by HPLC-SPE-TT-NMR analysis.
Data set [5] can be described thus: Drug excretion in Wistar rat urine assessed as (E)-6-((1R,2R ,6R)-2,5-Dihy droxy-4-methoxy-6-methyl-3-oxocyclo-hex-4-enyl)-4-methylhex-3-enoic acid level at 200 mg/kg, po administered via gavage measured after 24 hrs by HPLC-SPE-TT-NMR analysis.

On to `COC1=C(OC)[C@H](O)[C@H](C/C=C(\C)CCC(=O)O)[C@@H](C)C1=O`, for which the Drug excretion entry in data set [1] is reported as “metabolite_detected”.

For the molecule `COC1=C(OC)[C@H](O)[C@H](CC/C(C)=C/CC(=O)O)[C@@H](C)C1=O`, in data set [1], the Drug excretion result was “metabolite_detected”.

As to `COC1=C(O)[C@H](C)[C@@H](CC/C(C)=C/CC(=O)O)[C@@H](O)C1=O`, the Drug excretion result in data set [1] is “metabolite_detected”.

On to `COC1=C(O)[C@H](C)[C@@H](C/C=C(\C)CCC(=O)O)[C@@H](O)C1=O`, for which the Drug excretion entry in data set [1] is reported as “metabolite_detected”.

On to `COC1=C(OC)[C@H](O)[C@H](C/C=C(\C)CC/C=C(\C)CCC=C(C)C)[C@@H](C)C1=O` [ANTROQUINONOL], for which the Drug excretion result in data set [2], in data set [3], in data set [4] and in data set [5] was “metabolite_detected” throughout.
